Assay [1] deals with T1, mutEGFR (D770_N771insSVD) (Homo sapiens, UniProt P00533, DUP768-770).
T1 construct: GST-EGFR #3 (SVD between D770 and N771); made in house; host or cells: Sf9 insect cells (baculovirus)
Description: Exon20-Mutant-EGFR (D770_N771insSVD) kinase assay (TR-FRET). The format is biochemical. Background: TR-FRET usually uses a lanthanide donor and a delayed reading to cut background.

Assay [2] addresses T2, mutEGFR (D770_N771insNPG, T790) (Homo sapiens, UniProt P00533, INS770NPG/T790M).
T2 construct: exact insNPG construct not described; in-house EGFR proteins were N-terminal GST fusions from baculovirus/insect cells (borders R669-A1210 given only for WT, insSVD, insASV)
Put plainly: mutEGFR (D770_N771insNPG, T790) kinase assay. The assay is classed as biochemical. The source says:
The different EGFR proteins used in the biochemical kinase activity inhibition assays were generated inhouse by expression in insect cells using Baculo Virus system and subsequent purification as described in the following paragraphs.
The cDNAs encoding the various protein sequences from human EGFR human (P00533) were optimized for expression in eukaryotic cells and synthesized by the GeneArt Technology at Life Technologies.

Another assay concerns BA/F3 (insSVD) cells. Description: Ba/F3-EGFR-insSVD cell survival assay (Cell Titer-Glo). The assay is classed as cell-based. In a few lines:
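Ba/F3 cells stably expressing retroviral EGFR-insSVD or insSVD T790M, grown without IL-3 on 10 ng/ml EGF, 4000 cells/well. Compound pinned in, 48 h at 37° C. Viability by CellTiter-Glo luminescence.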
(In general: Cellular ATP, detected with luciferase, serves as a proxy for viable cell number.)

[3] abbreviates: mutEGFR (D770_N771insSVD) kinase assay IC50, Table 2a, D770_N771insSVD, 2 mM ATP.
Where [4] appears, read: Mus musculus, BaF3, 48 h, Table 3a, cell survival, Cell Titer-Glo, with 10 ng/ml EGF, without IL-3.
[5] abbreviates: mutEGFR (D770_N771insSVD) kinase assay IC50, Table 2b (from US Priority Patent Application), mutEGFR D770_N771insSVD.
[6] abbreviates: Table 2b (from US Priority Patent Application), mutEGFR D770_N771insNPG.
The mark [7] stands for this setting: Mus musculus, BaF3, 48 h, Table 3b, Ba/F3 EGFR-insSVD.

The structures appear in SMILES notation.

T2 sequence (P00533 with tags, fused parts or gaps INS770NPG/T790M limits assumed): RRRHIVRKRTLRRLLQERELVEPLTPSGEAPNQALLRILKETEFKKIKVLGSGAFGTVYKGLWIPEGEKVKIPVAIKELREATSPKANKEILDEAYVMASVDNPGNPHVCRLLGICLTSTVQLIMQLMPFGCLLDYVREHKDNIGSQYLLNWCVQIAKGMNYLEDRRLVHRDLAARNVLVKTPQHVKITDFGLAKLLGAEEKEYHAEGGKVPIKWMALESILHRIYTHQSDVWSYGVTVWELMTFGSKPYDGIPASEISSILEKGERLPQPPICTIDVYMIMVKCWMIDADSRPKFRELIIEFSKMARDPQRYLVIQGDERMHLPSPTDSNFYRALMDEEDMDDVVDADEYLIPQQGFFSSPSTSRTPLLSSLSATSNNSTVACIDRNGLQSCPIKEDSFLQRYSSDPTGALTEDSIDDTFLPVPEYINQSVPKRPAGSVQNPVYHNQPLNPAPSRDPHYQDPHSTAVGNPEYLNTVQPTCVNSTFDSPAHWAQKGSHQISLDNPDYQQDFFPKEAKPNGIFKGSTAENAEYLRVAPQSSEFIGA
T1 sequence (P00533 with tags, fused parts or gaps DUP768-770): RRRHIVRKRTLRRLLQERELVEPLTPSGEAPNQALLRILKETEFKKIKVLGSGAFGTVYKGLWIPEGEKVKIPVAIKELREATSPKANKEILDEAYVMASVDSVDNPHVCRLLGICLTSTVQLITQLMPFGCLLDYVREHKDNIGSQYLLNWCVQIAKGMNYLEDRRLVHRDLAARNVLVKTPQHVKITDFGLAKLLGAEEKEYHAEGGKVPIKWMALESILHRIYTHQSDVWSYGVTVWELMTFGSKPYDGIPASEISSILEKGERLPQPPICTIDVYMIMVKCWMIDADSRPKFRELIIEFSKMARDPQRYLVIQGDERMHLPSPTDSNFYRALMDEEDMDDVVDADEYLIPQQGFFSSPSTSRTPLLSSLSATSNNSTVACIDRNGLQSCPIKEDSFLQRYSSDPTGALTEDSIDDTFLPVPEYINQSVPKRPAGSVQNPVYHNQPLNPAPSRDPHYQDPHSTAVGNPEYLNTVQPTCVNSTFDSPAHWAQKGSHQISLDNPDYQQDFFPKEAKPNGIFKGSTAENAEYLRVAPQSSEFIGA

For `C[C@@H]1Cn2nc(-c3ccc(Cl)cc3)c(-c3ccncc3)c2CN1C(=O)/C=C/CN(C)C` [Example 246, (2E)-1-[(6R)-2-(4-chlorophenyl)-6-methyl-3-(pyridin-4-yl)-6,7-dihydropyrazolo[1,5-a]pyrazin-5(4H)-yl]-4-(dimethylamino)but-2-en-1-one], the IC50 in assay [1] (setting [3]) amounted to 0.131 nM; in assay [2] (Table 2a, D770_N771insNPG), 0.203 nM; in the assay with BA/F3 (insSVD) cells (setting [4]) it was 33.7 nM.

`C=CC(=O)N1Cc2c(-c3ccnc4[nH]cc(C)c34)c(-c3cccc(C#N)c3)nn2C[C@@H]1C` [Example 283, 3-[(6S)-6-methyl-3-(3-methyl-1H-pyrrolo[2,3-b]pyridin-4-yl)-5-(prop-2-enoyl)-4,5,6,7-tetrahydropyrazolo[1,5-a]pyrazin-2-yl]benzonitrile]: the concentration for half-maximal inhibition (IC50) in assay [1] (setting [3]) is 249 nM; in assay [2] (Table 2a, D770_N771insNPG) it was 30.3 nM; in the assay on BA/F3 (insSVD) cells (setting [4]), 37.5 nM.

Take `Cc1c[nH]c2nccc(-c3c(-c4cccc(C#N)c4)nn4c3CN(C(=O)/C=C/CN(C)C)[C@H](C)C4)c12` [Example 289, 3-[(6R)-5-[(2E)-4-(dimethylamino)but-2-enoyl]-6-methyl-3-(3-methyl-1H-pyrrolo[2,3-b]pyridin-4-yl)-4,5,6,7-tetrahydropyrazolo[1,5-a]pyrazin-2-yl]benzonitrile]: the IC50 in assay [1] (setting [3]) is 6740 nM; in assay [2] (Table 2a, D770_N771insNPG) it was 348 nM; with BA/F3 (insSVD) cells (setting [4]) it was 910 nM.

In the case of `C=CC(=O)N1CCn2nc(-c3ccc(OC)cc3)c(-c3ccncc3)c2C1` [Example 41, 1-[2-(4-methoxyphenyl)-3-(pyridin-4-yl)-6,7-dihydropyrazolo[1,5-a]pyrazin-5(4H)-yl]prop-2-en-1-one], the IC50 in assay [1] (setting [3]) turned out to be 1.09 nM; in assay [2] (Table 2a, D770_N771insNPG), 3.22 nM; with BA/F3 (insSVD) cells (setting [4]), 37.2 nM.

For `C=CC(=O)N1CCn2nc(-c3ccc(OC(F)F)cc3)c(-c3ccncc3)c2C1` [Example 128, 1-{2-[4-(difluoromethoxy)phenyl]-3-(pyridin-4-yl)-6,7-dihydropyrazolo[1,5-a]pyrazin-5(4H)-yl}prop-2-en-1-one], the 50% inhibitory concentration (IC50) in assay [1] (setting [3]) amounted to 3.62 nM; in assay [2] (Table 2a, D770_N771insNPG), 13.8 nM; with BA/F3 (insSVD) cells (setting [4]), 139 nM.

In the case of `CN(C)C/C=C/C(=O)N1CCn2nc(-c3ccc(OC(F)(F)F)cc3)c(-c3ccncc3)c2C1` [Example 145, (2E)-4-(dimethylamino)-1-[3-(pyridin-4-yl)-2-[4-(trifluoromethoxy)phenyl]-6,7-dihydropyrazolo[1,5-a]pyrazin-5(4H)-yl]but-2-en-1-one], the IC50 stood at 9.01 nM in assay [1] (setting [3]); 60.4 nM in assay [2] (Table 2a, D770_N771insNPG); 607 nM with BA/F3 (insSVD) cells (setting [4]).

With `C=CC(=O)N1CCn2nc(-c3ccc(Cl)c(CC)c3)c(-c3ccncc3)c2C1` [Example 190, 1-[2-(4-chloro-3-ethylphenyl)-3-(pyridin-4-yl)-6,7-dihydropyrazolo[1,5-a]pyrazin-5(4H)-yl]prop-2-en-1-one], the IC50 in assay [1] (setting [3]) stood at 1.03 nM; in assay [2] (Table 2a, D770_N771insNPG), 3.03 nM; in the assay with BA/F3 (insSVD) cells (setting [4]), 172 nM.

For the compound `O=C(/C=C/CN1CCC1)N1CCn2nc(-c3ccc(Cl)cc3)c(-c3ccncc3)c2C1` [Example 162, (2E)-4-(azetidin-1-yl)-1-[2-(4-chlorophenyl)-3-(pyridin-4-yl)-6,7-dihydropyrazolo[1,5-a]pyrazin-5(4H)-yl]but-2-en-1-one], the IC50 in assay [1] (setting [3]) turned out to be 0.507 nM; in assay [2] (Table 2a, D770_N771insNPG), 2.32 nM; in the assay on BA/F3 (insSVD) cells (setting [4]) it was 43.8 nM.

Consider `CC1CN(C(=O)/C=C/CN(C)C)Cc2c(-c3ccncc3)c(-c3ccc(Cl)cc3F)nn21` (single isomer, unassigned; isomer 1) [Example 287, (2E)-1-[2-(4-chloro-2-fluorophenyl)-7-methyl-3-(pyridin-4-yl)-6,7-dihydropyrazolo[1,5-a]pyrazin-5(4H)-yl]-4-(dimethylamino)but-2-en-1-one (isomer 1)], for which the IC50 in assay [1] (setting [3]) was 0.22 nM; in assay [2] (Table 2a, D770_N771insNPG) it was 0.415 nM; in the assay on BA/F3 (insSVD) cells (setting [4]) it was 37.3 nM.

`C=CC(=O)N1CCn2nc(-c3ccc(F)cc3)c(-c3ccncc3)c2C1C` (racemic) [Example 239, 1-[(RS)-2-(4-fluorophenyl)-4-methyl-3-(pyridin-4-yl)-6,7-dihydropyrazolo[1,5-a]pyrazin-5(4H)-yl]prop-2-en-1-one]: the IC50 turned out to be 1.39 nM in assay [1] (setting [3]); 4.74 nM in assay [2] (Table 2a, D770_N771insNPG); 38.7 nM in the assay with BA/F3 (insSVD) cells (setting [4]).

Consider `Cc1ccc(-c2nn3c(c2-c2ccncc2)CN(C(=O)/C=C/CN(C)C)CC3)cc1` [Example 156, (2E)-4-(dimethylamino)-1-[2-(4-methylphenyl)-3-(pyridin-4-yl)-6,7-dihydropyrazolo[1,5-a]pyrazin-5(4H)-yl]but-2-en-1-one], for which the IC50 was found to be 1.45 nM in assay [1] (setting [3]); 4.64 nM in assay [2] (Table 2a, D770_N771insNPG); 98.2 nM with BA/F3 (insSVD) cells (setting [4]).

`CN(C)C/C=C/C(=O)N1CCn2nc(-c3ccc(C(F)F)cc3)c(-c3ccncc3)c2C1` [Example 148, (2E)-1-{2-[4-(difluoromethyl)phenyl]-3-(pyridin-4-yl)-6,7-dihydropyrazolo[1,5-a]pyrazin-5(4H)-yl}-4-(dimethylamino)but-2-en-1-one]: the IC50 in assay [1] (setting [3]) came to 1.91 nM; in assay [2] (Table 2a, D770_N771insNPG), 9.1 nM; in the assay on BA/F3 (insSVD) cells (setting [4]), 387 nM.

As to `C=CC(=O)N1CCn2nc(-c3ccc(OC)c(F)c3)c(-c3ccnc4[nH]cc(C)c34)c2C1` [Example 46, 1-[2-(3-fluoro-4-methoxyphenyl)-3-(3-methyl-1H-pyrrolo[2,3-b]pyridin-4-yl)-6,7-dihydropyrazolo[1,5-a]pyrazin-5(4H)-yl]prop-2-en-1-one], the IC50 in assay [1] (setting [3]) worked out at 770 nM; in assay [2] (Table 2a, D770_N771insNPG), 555 nM; in the assay on BA/F3 (insSVD) cells (setting [4]), 170 nM.

`C=CC(=O)N1CCn2nc(-c3ccc(C(F)F)cc3)c(-c3ccncc3)c2C1` [Example 131, 1-{2-[4-(difluoromethyl)phenyl]-3-(pyridin-4-yl)-6,7-dihydropyrazolo[1,5-a]pyrazin-5(4H)-yl}prop-2-en-1-one]: the IC50 is 1.79 nM in assay [1] (setting [3]); 8.01 nM in assay [2] (Table 2a, D770_N771insNPG); 61.3 nM in the assay on BA/F3 (insSVD) cells (setting [4]).

As to `C=CC(=O)N1CCn2nc(-c3ccc4cc[nH]c4c3F)c(-c3ccncc3)c2C1` [Example 114], the half-maximal inhibitory concentration (IC50) in assay [1] (setting [3]) is 0.144 nM; in assay [2] (Table 2a, D770_N771insNPG), 0.218 nM; in the assay on BA/F3 (insSVD) cells (setting [4]), 13.7 nM.

Take `CN(C)C/C=C/C(=O)N1CCn2nc(-c3ccc(C(F)(F)F)cc3F)c(-c3ccncc3)c2C1` [Example 152, (2E)-4-(dimethylamino)-1-{2-[2-fluoro-4-(trifluoromethyl)phenyl]-3-(pyridin-4-yl)-6,7-dihydropyrazolo[1,5-a]pyrazin-5(4H)-yl}but-2-en-1-one]: the IC50 is 1.05 nM in assay [1] (setting [3]); 4.55 nM in assay [2] (Table 2a, D770_N771insNPG); 257 nM in the assay with BA/F3 (insSVD) cells (setting [4]).

Take `CN(C)C/C=C/C(=O)N1CCn2nc(-c3ccc(F)cc3)c(-c3ccnc(NC(=O)C4CC4)c3)c2C1` [Example 8, N-(4-{5-[(2E)-4-(dimethylamino)but-2-enoyl]-2-(4-fluorophenyl)-4,5,6,7-tetrahydropyrazolo[1,5-a]pyrazin-3-yl}pyridin-2-yl)cyclopropanecarboxamide]: the IC50 turned out to be 0.393 nM in assay [1] (setting [3]); 0.393 nM in assay [1] (setting [5]); 0.765 nM in assay [2] (Table 2a, D770_N771insNPG); 0.765 nM in assay [2] (setting [6]); 20.4 nM in the assay with BA/F3 (insSVD) cells (setting [4]); 20.4 nM in the assay with BA/F3 (insSVD) cells (setting [7]).

Take `O=C(/C=C/C(F)F)N1CCn2nc(-c3ccc(Cl)cc3F)c(-c3ccncc3)c2C1` [Example 74, (2E)-1-[2-(4-chloro-2-fluorophenyl)-3-(pyridin-4-yl)-6,7-dihydropyrazolo[1,5-a]pyrazin-5(4H)-yl]-4,4-difluorobut-2-en-1-one]: the IC50 in assay [1] (setting [3]) came out at 0.183 nM; in assay [2] (Table 2a, D770_N771insNPG), 0.807 nM; in the assay with BA/F3 (insSVD) cells (setting [4]), 34 nM.

Consider `CN(C)C/C=C/C(=O)N1CCn2nc(-c3ccc(F)cc3)c(-c3ccncc3)c2C1` [Example 15, (2E)-4-(dimethylamino)-1-[2-(4-fluorophenyl)-3-(pyridin-4-yl)-6,7-dihydropyrazolo[1,5-a]pyrazin-5(4H)-yl]but-2-en-1-one], for which the IC50 in assay [1] (setting [3]) was found to be 0.729 nM; in assay [1] (setting [5]) it was 0.729 nM; in assay [2] (Table 2a, D770_N771insNPG), 1.08 nM; in assay [2] (setting [6]), 1.08 nM; in the assay with BA/F3 (insSVD) cells (setting [4]) it was 86.9 nM; with BA/F3 (insSVD) cells (setting [7]), 86.9 nM.

Take `Cc1c[nH]c2nccc(-c3c(-c4ccc(C(F)(F)F)cc4)nn4c3C(C)N(C(=O)/C=C/CN(C)C)CC4)c12` (single isomer, unassigned; isomer 1) [Example 265, (E)-4-(dimethylamino)-1-(4-methyl-3-(3-methyl-1H-pyrrolo[2,3-b]pyridin-4-yl)-2-(4-(trifluoromethyl)phenyl)-6,7-dihydropyrazolo[1,5-a]pyrazin-5(4H)-yl) but-2-en-1-one (isomer 1)]: the IC50 worked out at 4040 nM in assay [1] (setting [3]); 6300 nM in assay [2] (Table 2a, D770_N771insNPG); 172 nM with BA/F3 (insSVD) cells (Table 3a, cell survival, Cell Titer-Glo, with 10 ng/ml EGF, without IL-3, 48 h).

Turning to `C=CC(=O)N1CCn2nc(-c3ccccc3OC)c(-c3ccncc3)c2C1` [Example 39, 1-[2-(2-methoxyphenyl)-3-(pyridin-4-yl)-6,7-dihydropyrazolo[1,5-a]pyrazin-5(4H)-yl]prop-2-en-1-one], the 50% inhibitory concentration (IC50) in assay [1] (setting [3]) is 37.6 nM; in assay [2] (Table 2a, D770_N771insNPG), 18.3 nM; with BA/F3 (insSVD) cells (setting [4]) it was 622 nM.

The IC50 is the point on the concentration scale where inhibition reaches its midpoint. The low end stands for greater potency in that assay, the high end for weaker potency in that assay.

(Values after patent publication US20260365653A1, “IRREVERSIBLE MUTEGFR INHIBITORS” (Bayer Aktiengesellschaft, priority 2022, published 2026).)
